From patent publication US20200299612A1, “HIGH PERFORMING, HIGH IMPACT BLOOM ACCORD” (International Flavors & Fragrances Inc., priority 2016, published 2020)

Assays:
Assay in all cases: Antibacterial activity
e. hirae = system: e. hirae
Text: (§1) The fragrance accords can contain antibacterial ingredients described above. See U.S. Pat. No. 6,495,512 for a list of suitable antibacterial ingredients.

e. coli = system: e. coli
Text: as §1

s. aureos = system: s. aureos
Text: as §1

Measured: antibacterial activity

C=CC(C)(O)CCC=C(C)C (stereo not drawn) [3,7-dimethylocta-1,6-dien-3-ol]
high antibacterial activity: e. hirae | e. coli | s. aureos

COc1ccc(C)cc1 [1-methoxy-4-methylbenzene]
high antibacterial activity: e. hirae | e. coli | s. aureos
